Assay results published in US20240043429A1, “TRIAZOLO PYRAZINE COMPOUND AND USE THEREOF” (TECHNODERMA MEDICINES, INC., priority 2020, published 2024).

Experiments:
Type in all cases: biochemical
JAK2 = JAK2 (Homo sapiens, UniProt O60674); assay: Enzyme activity inhibition of JAK kinases (ULight-JAK substrate, Eu-antibody): JAK2; details: JAK2 1 nM, ATP 10 μM, 1 hour reaction at room temperature; read-out: JAK2 half-maximum inhibitory concentration
Method: (§1) 1× test buffer: The test buffer was prepared, and diluted with deionized water (deionized water: test buffer=9:1) to obtain the 1×test buffer. 4× kinase solution: JAK kinase was diluted 4-fold with the kinase reaction buffer to a final concentration (JAK1: 80 nM, JAK2/JAK3/Tyk2: 4 nM). 4×substrate solution: ULight™-JAK (Tyr1023) substrate was diluted with the kinase reaction buffer to 200 nM (final concentration: 50 nM). 4× ATP solution: ATP was diluted 4-fold with the kinase reaction buffer to a final concentration (JAK1: 160 μM, JAK2/JAK3/Tyk2: 40 μM). 4× test compound solution: The test compound was dissolved with DMSO to prepare 10 mM stock solutions, and diluted 3-fold serially to required concentrations, 10 concentrations were set for each compound, and final concentrations of the test compound ranged from 10 μM to 0.5 nM. 4× enzyme reaction stop solution: 1× test buffer was used dissolve EDTA to 40 mM (final concentration of EDTA: 10 mM). 4× test antibody solution: Eu-labeled test antibody (anti-phosphotyrosine (PT66)) was diluted with 1× test buffer to 8 nM (final concentration of antibody: 2 nM). […] After incubation of the antibody, a signal value of each well was measured via Envision plate reader. […]

Tyk2 = Tyk2 (Homo sapiens, UniProt P29597); assay: Enzyme activity inhibition of JAK kinases (ULight-JAK substrate, Eu-antibody): Tyk2; details: ATP 10 μM, 1 hour reaction at room temperature; read-out: Tyk2 half-maximum inhibitory concentration
Method: as §1

JAK1 = JAK1 (Homo sapiens, UniProt P23458); assay: Enzyme activity inhibition of JAK kinases (ULight-JAK substrate, Eu-antibody): JAK1; details: JAK1 20 nM, ATP 40 μM, 2 hours reaction at room temperature; read-out: JAK1 half-maximum inhibitory concentration
Method: as §1

Sequence of JAK2 (O60674 whole entry): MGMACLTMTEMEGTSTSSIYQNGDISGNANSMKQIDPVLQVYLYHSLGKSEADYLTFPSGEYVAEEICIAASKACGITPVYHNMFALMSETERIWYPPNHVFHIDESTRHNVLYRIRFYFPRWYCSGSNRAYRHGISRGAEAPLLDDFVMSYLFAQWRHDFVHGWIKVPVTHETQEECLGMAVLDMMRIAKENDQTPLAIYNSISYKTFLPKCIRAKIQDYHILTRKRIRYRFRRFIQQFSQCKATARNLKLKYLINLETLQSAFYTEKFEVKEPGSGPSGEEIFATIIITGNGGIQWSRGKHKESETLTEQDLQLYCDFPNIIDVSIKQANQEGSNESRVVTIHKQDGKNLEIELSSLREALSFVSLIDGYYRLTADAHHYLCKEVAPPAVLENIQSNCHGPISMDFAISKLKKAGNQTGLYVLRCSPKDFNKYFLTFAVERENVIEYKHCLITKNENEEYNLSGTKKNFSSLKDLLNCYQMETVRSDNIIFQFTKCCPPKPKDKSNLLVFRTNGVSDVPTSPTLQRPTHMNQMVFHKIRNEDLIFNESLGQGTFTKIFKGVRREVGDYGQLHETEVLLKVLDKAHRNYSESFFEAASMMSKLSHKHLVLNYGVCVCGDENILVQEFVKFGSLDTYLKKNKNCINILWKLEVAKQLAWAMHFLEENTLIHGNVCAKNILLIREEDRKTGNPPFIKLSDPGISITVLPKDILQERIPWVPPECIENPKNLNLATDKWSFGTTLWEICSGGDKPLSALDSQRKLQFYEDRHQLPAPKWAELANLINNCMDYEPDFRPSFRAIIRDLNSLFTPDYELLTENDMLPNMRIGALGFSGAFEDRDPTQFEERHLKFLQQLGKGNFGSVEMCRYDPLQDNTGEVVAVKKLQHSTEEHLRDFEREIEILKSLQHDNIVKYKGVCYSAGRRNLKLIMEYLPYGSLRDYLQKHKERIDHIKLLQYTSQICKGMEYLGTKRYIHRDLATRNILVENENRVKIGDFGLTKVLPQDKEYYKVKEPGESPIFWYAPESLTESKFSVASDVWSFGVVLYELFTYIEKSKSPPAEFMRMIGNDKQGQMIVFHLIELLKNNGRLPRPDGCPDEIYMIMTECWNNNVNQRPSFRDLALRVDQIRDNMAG
Sequence of Tyk2 (P29597 whole entry): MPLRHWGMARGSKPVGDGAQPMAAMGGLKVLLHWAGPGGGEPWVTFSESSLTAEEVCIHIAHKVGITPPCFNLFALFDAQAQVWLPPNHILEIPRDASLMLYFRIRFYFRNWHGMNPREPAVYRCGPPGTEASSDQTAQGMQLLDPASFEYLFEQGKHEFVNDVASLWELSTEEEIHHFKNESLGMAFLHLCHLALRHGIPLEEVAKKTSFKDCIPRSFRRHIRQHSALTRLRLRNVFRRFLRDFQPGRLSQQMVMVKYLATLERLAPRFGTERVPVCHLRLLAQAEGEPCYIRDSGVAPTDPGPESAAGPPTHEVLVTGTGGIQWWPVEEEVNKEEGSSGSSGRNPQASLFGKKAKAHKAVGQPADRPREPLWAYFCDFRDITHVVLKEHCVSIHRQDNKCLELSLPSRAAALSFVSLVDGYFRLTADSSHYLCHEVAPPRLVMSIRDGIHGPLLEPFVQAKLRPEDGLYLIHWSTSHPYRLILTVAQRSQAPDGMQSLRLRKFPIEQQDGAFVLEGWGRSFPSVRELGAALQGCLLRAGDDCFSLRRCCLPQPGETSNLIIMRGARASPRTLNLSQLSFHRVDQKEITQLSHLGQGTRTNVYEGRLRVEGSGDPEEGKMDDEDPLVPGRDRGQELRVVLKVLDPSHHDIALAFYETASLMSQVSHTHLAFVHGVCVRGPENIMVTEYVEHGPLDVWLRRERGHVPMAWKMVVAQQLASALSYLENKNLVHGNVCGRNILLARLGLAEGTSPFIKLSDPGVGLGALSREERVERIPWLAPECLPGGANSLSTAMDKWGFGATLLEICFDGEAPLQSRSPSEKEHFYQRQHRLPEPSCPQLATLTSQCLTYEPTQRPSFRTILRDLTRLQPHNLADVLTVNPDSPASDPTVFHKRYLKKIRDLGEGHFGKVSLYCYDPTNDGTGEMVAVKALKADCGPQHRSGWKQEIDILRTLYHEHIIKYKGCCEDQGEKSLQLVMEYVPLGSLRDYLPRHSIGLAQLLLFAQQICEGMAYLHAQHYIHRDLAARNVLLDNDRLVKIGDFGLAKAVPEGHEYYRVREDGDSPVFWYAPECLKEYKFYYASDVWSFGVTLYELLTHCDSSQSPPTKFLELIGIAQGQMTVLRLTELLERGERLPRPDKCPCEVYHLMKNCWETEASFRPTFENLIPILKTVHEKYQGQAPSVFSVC
Sequence of JAK1 (P23458 whole entry): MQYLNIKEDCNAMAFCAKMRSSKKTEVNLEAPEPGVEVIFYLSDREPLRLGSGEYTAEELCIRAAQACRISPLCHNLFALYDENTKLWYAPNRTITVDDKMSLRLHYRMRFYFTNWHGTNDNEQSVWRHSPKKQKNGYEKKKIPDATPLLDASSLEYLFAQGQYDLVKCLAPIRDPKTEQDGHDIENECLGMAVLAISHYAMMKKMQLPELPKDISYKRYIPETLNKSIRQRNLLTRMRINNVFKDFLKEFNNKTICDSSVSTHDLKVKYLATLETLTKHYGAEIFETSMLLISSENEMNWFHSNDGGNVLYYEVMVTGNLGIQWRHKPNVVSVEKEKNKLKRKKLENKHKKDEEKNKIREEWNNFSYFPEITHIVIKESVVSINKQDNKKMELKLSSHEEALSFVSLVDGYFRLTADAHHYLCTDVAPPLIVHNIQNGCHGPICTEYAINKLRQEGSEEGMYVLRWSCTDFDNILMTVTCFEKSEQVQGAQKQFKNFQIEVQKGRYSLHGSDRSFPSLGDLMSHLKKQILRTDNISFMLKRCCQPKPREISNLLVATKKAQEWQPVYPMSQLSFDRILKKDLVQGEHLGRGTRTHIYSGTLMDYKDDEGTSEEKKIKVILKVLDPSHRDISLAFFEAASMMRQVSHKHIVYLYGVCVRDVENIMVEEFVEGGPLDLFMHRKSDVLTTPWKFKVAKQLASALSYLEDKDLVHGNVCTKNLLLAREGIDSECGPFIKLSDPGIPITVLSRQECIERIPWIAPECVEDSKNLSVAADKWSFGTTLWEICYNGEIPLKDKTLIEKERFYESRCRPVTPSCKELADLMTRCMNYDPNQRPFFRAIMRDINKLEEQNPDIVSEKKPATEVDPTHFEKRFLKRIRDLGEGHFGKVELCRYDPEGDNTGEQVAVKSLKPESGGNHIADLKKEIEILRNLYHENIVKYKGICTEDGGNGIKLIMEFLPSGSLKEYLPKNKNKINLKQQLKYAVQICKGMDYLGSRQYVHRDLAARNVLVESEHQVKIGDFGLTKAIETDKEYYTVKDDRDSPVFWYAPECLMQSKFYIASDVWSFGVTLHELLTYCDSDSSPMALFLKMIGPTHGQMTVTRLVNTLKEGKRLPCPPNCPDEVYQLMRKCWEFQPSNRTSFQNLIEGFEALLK

Row | SMILES | IC50 (JAK2) | IC50 (Tyk2) | IC50 (JAK1)
1 | Cn1cc(-c2cn3ncnc3c(-c3ccn([C@]4(CC#N)C[C@@H](C#N)C4)c3)n2)cn1 [TDM-181020, (1r,3r)-3-(cyanomethyl)-3-(3-(6-(1-methyl-1H-pyrazol-4-yl)-[1,2,4]triazolo[1,5-a]pyrazin-8-yl)-1H-pyrrol-1-yl)cyclobutane-1-carbonitrile] | 2420 nM | 111 nM | –
2 | Cn1cc(-c2cn3ncnc3c(-c3ccn([C@]4(CC#N)C[C@H](C#N)C4)c3)n2)cn1 [TDM-181021, (1s,3s)-3-(Cyanomethyl)-3-(3-(6-(1-Methyl-1H-Pyrazol-4-Yl)-[1,2,4]Triazolo[1,5-a]Pyrazin-8-Yl)-1H-Pyrrol-1-Yl)Cyclobutane-1-Carbonitrile] | 138 nM | 14 nM | 1210 nM
